Test results as given in patent publication US7375132B2, “Compounds and methods for inhibiting cellular responses to hypoxia” (University of Mississippi, priority 2004, dated 2008).

How the values were obtained:
[1] = tested on: T47D cells; assay: Cell viability by Neutral Red assay under hypoxic conditions; type: cell-based, human; details: similar hypoxic conditions
Excerpt: The data presented in FIGS. 2 and 3 are averages from one representative experiment performed in quadruplicate and the bars represent standard errors. Accordingly, a compound of Formula (I) is shown to have a selective effect on physiological hypoxia-induced HIF-1 activation, relative to “chemical hypoxia”-induced HIF-1. To rule out false positives associated with cytotoxicity, the effects of Formula (I) on cell viability are examined.

[2] = tested on: HIF-1α protein; assay: Western blot of nuclear HIF-1α protein induced by hypoxia; type: cell-based, human; details: T47D cells; hypoxia about 4 hours; nuclear extract Western blot
Procedure: Since the availability of the oxygen-regulated HIF-1α protein determines the biological activity of HIF-1 and hypoxia induces HIF-1α protein, the effect of compounds of the present invention on the induction of HIF-1α protein are examined in T47D cells. Briefly, exponentially grown T47D cells are exposed to a compound of Formula (I) for about 30 minutes. The incubation then continues for about 4 hours under hypoxic conditions. Nuclear extracts are prepared from control and treated cells. The HIF-1αand HIF-1β proteins in the nuclear extract samples are detected by Western blot, using HIF-1αand HIF-1β specific antibodies (Novus Biologicals). […] Significant inhibition of HIF-1α protein is observed at about 100 nM and complete inhibition is observed at about 1 μM. It is reasonable to conclude that the selectivity of the compounds of the present invention towards hypoxia-activated HIF-1 is caused by selective blockade of the hypoxic induction of HIF-1α protein.

[3] = tested on: secreted VEGF protein; assay: Secreted VEGF protein ELISA after 1,10-phenanthroline (chemical hypoxia); type: cell-based, human; details: T47D cells pretreated with 1,10-phenanthroline (chemical hypoxia)
Procedure: (§1) Since secreted VEGF protein is the bioactive form, compounds that can reduce the level of secreted VEGF protein represent potential tumor angiogenesis inhibitors. Thus, compounds that can inhibit both hypoxic activation of HIF-1 and hypoxic induction of secreted VEGF protein represent “true” leads that target tumor hypoxia. The effects of compounds of the present invention on hypoxic induction of secreted VEGF protein are examined in T47D cells. Exponentially grown T47D cells were plated at the density of about 30,000 cells/well into 96-well plates. Compound treatment and hypoxic exposure were the same as described. Following incubation, secreted VEGF protein concentrations in the conditioned media are determined by ELISA (R & D Systems) and the data normalized by the number of viable cells. […] Therefore, in addition to its effect on HIF-1, compounds of the present invention have a potential therapeutic application as an agent to inhibit tumor angiogenesis.

[4] = tested on: HIF-1; assay: Cell-based HIF-1 luciferase reporter assay, HIF-1 activation by iron chelator 1,10-phenanthroline (chemical hypoxia); parameters: species or system human; details: T47D cells; 1,10-phenanthroline at 10 μM; compound about 3 μM (FIG. 3)
Procedure: For these studies, exponentially grown T47D cells are transiently transfected with the pTK-HRE3-luc and pGL3-control (Promega) reporters and plated into 96-well plates. The pGL3-control reporter contains a modified reporter (cloned from Photinus pyralis) under the control of a SV40 early promoter and provides low-level, constitutive expression in mammalian cells as internal control.
About 24 hours after plating, a compound of Formula (I) is added to the transfected T47D cells. Following incubation at about 37° C. for about 30 minutes, the cells are exposed to hypoxic conditions (1% O2/5% CO2/94% N2) or chemical hypoxia (iron chelator 1,10-phenanthroline at 10 μM) for 16 hr. At the end of incubation, the cells are harvested and both luciferase activities determined using a Luciferase Assay System (Promega). Luciferase activity from the pTK-HRE3-luc reporter was compared to luciferase activity from the pGL3-control reporter.

[5] = tested on: secreted VEGF protein; assay: Secreted VEGF protein ELISA after hypoxic treatment; type: cell-based, human; details: concentrations of 1 μM and above; hypoxic treatment of T47D cells
Procedure: as §1

[6] = tested on: HIF-1; assay: Cell-based HIF-1 luciferase reporter assay (pTK-HRE3-luc), HIF-1 activation by hypoxia; details: Homo sapiens; T47D cells; 1% O2/5% CO2/94% N2, 16 hr; read-out: IC50, inhibition of hypoxia-induced HIF-1 activity
Excerpt: To identify functional antagonists of HIF-1, the present inventors have established a cell-based reporter assay for inhibitors of HIF-1 in hypoxia responsive human breast carcinoma T47D cells. Breast cancer was chosen as the target for this drug discovery effort, due to the high incidence of this disease and the urgent need to identify chemotherapeutic agents that target tumor hypoxia, the comprehensive knowledge base of breast cancer etiology, and the availability of well-studied human breast carcinoma cell lines as in vitro models. In addition, HIF-1α overexpression is associated with advanced stages of breast cancer and poor prognosis. The activity of HIF-1 is monitored using a luciferase reporter under the control of HRE from the erythropoietin gene (pTK-HRE3-luc). Natural product-rich extracts (dissolved in DMSO) are evaluated for activities that inhibit HIF-1 activation by hypoxia (about: 1% O2/5% CO2/94% N2).
For these studies, exponentially grown T47D cells are transiently transfected with the pTK-HRE3-luc and pGL3-control (Promega) reporters and plated into 96-well plates. […]
About 24 hours after plating, a compound of Formula (I) is added to the transfected T47D cells. […] At the end of incubation, the cells are harvested and both luciferase activities determined using a Luciferase Assay System (Promega). […]

[7] = tested on: mitochondrial electron transport pathway; assay: Mitochondrial oxygen consumption (FIG. 9); type: biochemical; details: in the presence of glutamate/malate, ADP; increasing amounts of compound
Procedure: FIG. 9 is a graph showing that a compound of formula 1 inhibits the mitochondrial electron transport pathway. Mitochondrial oxygen consumption was measured, in this example, in the presence of glutamate/malate, ADP and increasing amounts of a compound of formula 1.

[8] = tested on: T47D cells; assay: T47D cell survival under hypoxic conditions (FIG. 8); type: cell-based, human

CC1=CC(O)C(C(C)CCC2C(C)C3(C)CCC2(C)O3)CC1 (stereo not drawn) [Formula (I), LAURENDITERPENOL]
effect on T47D cell viability [1]: marginal decrease
concentration at which complete inhibition of HIF-1α protein is observed [2]: about 1 μM
concentration at which significant inhibition of HIF-1α protein is observed [2]: about 100 nM
effect on secreted VEGF protein levels [3]: do not affect
effect on iron chelator-induced HIF-1 [4]: no statistically significant effect
decrease in level of secreted VEGF protein [5]: about 60%
IC50 [6]: ~400 nM
effect on mitochondrial electron transport pathway (oxygen consumption) [7]: inhibits
effect on T47D cell survival [8]: significantly reduced
